In patent US10968210B2, “Diamino-alkylamino-linked arylsulfonamide compounds with selective activity in voltage-gated sodium channels” (Merck Sharp & Dohme Corp., priority 2016, dated 2021):

How the values were obtained:
[1] = molecular target: T1, human Nav 1.7 channels stably expressed in HEK 293 cells (Homo sapiens, UniProt Q15858); experiment: IonWorks Quattro automated patch-clamp, inactivated state block of Nav 1.7; assay type: cell-based; details: double-pulse protocol, HEK 293 cells held at -100 mV, read-out: potency for the Nav 1.7 sodium ion channel (IC50, IonWorks)
T1 construct: expressed in transfected cells; host or cells: HEK 293
T1 sequence (Q15858 whole entry): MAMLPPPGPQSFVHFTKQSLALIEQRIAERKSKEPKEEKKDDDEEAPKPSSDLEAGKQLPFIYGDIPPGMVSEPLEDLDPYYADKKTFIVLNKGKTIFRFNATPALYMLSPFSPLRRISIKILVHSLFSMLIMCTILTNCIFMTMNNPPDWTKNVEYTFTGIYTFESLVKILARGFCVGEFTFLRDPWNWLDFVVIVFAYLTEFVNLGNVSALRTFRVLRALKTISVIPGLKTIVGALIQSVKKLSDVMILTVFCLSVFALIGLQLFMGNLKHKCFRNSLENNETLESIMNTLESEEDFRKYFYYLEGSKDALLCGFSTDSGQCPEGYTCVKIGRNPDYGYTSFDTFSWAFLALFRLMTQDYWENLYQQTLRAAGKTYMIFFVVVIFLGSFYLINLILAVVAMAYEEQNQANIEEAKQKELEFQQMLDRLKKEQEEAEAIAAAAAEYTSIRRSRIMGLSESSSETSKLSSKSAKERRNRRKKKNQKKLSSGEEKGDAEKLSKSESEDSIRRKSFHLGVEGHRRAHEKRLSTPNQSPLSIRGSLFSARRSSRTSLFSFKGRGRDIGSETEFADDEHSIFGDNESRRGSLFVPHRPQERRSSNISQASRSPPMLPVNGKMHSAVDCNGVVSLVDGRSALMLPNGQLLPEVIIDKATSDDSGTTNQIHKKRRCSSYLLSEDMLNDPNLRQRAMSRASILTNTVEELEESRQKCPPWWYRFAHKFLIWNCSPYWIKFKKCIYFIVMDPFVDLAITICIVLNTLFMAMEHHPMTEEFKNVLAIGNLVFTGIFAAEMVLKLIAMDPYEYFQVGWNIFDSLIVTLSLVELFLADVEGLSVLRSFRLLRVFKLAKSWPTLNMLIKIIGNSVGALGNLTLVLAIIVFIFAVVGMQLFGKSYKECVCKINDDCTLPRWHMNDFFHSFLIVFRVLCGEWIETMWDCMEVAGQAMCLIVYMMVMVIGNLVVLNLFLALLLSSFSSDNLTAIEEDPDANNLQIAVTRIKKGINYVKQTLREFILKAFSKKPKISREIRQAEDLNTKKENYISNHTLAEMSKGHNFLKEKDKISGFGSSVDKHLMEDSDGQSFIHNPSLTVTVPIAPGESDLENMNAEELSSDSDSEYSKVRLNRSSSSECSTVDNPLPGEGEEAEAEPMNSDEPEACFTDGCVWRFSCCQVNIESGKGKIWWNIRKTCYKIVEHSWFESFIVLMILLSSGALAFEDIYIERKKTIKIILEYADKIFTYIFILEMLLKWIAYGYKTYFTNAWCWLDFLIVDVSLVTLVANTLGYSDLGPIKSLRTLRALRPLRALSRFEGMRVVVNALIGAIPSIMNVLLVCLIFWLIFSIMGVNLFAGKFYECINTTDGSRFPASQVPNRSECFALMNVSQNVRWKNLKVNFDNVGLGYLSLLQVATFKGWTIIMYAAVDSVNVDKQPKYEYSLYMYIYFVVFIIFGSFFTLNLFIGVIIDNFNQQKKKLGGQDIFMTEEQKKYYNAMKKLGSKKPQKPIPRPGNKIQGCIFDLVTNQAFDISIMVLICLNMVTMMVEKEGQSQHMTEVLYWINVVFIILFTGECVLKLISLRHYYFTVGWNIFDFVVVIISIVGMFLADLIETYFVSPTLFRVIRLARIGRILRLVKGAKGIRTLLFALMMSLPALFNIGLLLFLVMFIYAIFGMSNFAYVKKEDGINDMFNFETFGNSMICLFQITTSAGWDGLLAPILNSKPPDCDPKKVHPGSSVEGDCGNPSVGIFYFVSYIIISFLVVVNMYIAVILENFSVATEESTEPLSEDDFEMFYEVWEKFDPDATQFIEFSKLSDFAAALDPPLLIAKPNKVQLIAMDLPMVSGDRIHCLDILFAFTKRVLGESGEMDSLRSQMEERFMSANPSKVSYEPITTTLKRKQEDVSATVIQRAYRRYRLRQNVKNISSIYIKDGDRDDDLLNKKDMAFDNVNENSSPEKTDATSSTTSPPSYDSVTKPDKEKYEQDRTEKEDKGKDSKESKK
Method: (§1) IonWorks® Experimental Procedure
(§2) Compounds were tested on human Nav 1.7 and Nav 1.5 channels stably expressed in HEK 293 cells. Sodium current measurements on IonWorks Quattro: An automated patch-clamp assay on the IonWorks Quattro platform (Molecular Devices) was used to measure state-dependent inhibition of human Nav 1.7 and Nav 1.5 channels. Cells were sealed on a planar substrate using the Population Patch Plate (PPC) technology. Electrical access was obtained using both nystatin and amphotericin. A double-pulse protocol was used for the determination of IC50 values for inactivated state block. Nav 1.7 and Nav 1.5 expressing cells were voltage clamped at −100 mV and −110 mV, respectively. A depolarizing prepulse to −10 mV (Nav 1.7) or −30 mV (Nav 1.5) for 1000 ms followed by a 10 ms repolarization to ˜100 mV (Nav1.7) or −110 mV (Nav 1.5) was given to generate fractional channel inactivation of ˜50%, followed by a 10 ms test pulse to −10 mV (Nav 1.7) or −30 mV (Nav 1.5) to measure peak current in control conditions and after compound addition. The following recording solutions were used (mM). External: 150 NaCl, 2 CaCl2, 5 KCl, 1 Mg Cl2, 10 HEPES, 12 Dextrose; internal: 120 CsF, 30 CsCl, 10 EGTA, 5 HEPES, 5 NaF, 2 MgCl2.
(§3) For all electrophysiology experiments, offline analysis was used to determine percent inhibition as a function of drug concentration. IC50 values were determined by fitting to the Hill equation.
(§4) The various compounds in Examples 1 through 4 and Tables 1 through 3 exemplified above were assayed for activity and selectivity using the foregoing IonWorks® technique. The results are reported in the following paragraph in a format expressing the identification of the compound with reference Example and compound (e.g. Ex 1-9 is Example 1, compound 9) followed by the observed potency in nM and the ratio of Nav1.7 potency: Nav1.5 potency as described here. Thus, Ex1-9: 1.7=65/ratio=641 identifies compound Example 1, compound 9 as having 65 nM potency for the Nav 1.7 sodium ion channel (as measured by IonWorks®) and a ratio of 641 Nav 1.7: Nav 1.5 potency, determined by IonWorks® measurement.

[2] = molecular target: T2, human Nav 1.5 channels stably expressed in HEK 293 cells (Homo sapiens, UniProt Q14524); experiment: IonWorks Quattro automated patch-clamp, inactivated state block of Nav 1.5 (reported as ratio to Nav 1.7 potency); assay type: cell-based; details: selectivity for Nav 1.7 over Nav 1.5, both by IonWorks
T2 construct: expressed in transfected cells; host or cells: HEK 293
T2 sequence (Q14524 whole entry): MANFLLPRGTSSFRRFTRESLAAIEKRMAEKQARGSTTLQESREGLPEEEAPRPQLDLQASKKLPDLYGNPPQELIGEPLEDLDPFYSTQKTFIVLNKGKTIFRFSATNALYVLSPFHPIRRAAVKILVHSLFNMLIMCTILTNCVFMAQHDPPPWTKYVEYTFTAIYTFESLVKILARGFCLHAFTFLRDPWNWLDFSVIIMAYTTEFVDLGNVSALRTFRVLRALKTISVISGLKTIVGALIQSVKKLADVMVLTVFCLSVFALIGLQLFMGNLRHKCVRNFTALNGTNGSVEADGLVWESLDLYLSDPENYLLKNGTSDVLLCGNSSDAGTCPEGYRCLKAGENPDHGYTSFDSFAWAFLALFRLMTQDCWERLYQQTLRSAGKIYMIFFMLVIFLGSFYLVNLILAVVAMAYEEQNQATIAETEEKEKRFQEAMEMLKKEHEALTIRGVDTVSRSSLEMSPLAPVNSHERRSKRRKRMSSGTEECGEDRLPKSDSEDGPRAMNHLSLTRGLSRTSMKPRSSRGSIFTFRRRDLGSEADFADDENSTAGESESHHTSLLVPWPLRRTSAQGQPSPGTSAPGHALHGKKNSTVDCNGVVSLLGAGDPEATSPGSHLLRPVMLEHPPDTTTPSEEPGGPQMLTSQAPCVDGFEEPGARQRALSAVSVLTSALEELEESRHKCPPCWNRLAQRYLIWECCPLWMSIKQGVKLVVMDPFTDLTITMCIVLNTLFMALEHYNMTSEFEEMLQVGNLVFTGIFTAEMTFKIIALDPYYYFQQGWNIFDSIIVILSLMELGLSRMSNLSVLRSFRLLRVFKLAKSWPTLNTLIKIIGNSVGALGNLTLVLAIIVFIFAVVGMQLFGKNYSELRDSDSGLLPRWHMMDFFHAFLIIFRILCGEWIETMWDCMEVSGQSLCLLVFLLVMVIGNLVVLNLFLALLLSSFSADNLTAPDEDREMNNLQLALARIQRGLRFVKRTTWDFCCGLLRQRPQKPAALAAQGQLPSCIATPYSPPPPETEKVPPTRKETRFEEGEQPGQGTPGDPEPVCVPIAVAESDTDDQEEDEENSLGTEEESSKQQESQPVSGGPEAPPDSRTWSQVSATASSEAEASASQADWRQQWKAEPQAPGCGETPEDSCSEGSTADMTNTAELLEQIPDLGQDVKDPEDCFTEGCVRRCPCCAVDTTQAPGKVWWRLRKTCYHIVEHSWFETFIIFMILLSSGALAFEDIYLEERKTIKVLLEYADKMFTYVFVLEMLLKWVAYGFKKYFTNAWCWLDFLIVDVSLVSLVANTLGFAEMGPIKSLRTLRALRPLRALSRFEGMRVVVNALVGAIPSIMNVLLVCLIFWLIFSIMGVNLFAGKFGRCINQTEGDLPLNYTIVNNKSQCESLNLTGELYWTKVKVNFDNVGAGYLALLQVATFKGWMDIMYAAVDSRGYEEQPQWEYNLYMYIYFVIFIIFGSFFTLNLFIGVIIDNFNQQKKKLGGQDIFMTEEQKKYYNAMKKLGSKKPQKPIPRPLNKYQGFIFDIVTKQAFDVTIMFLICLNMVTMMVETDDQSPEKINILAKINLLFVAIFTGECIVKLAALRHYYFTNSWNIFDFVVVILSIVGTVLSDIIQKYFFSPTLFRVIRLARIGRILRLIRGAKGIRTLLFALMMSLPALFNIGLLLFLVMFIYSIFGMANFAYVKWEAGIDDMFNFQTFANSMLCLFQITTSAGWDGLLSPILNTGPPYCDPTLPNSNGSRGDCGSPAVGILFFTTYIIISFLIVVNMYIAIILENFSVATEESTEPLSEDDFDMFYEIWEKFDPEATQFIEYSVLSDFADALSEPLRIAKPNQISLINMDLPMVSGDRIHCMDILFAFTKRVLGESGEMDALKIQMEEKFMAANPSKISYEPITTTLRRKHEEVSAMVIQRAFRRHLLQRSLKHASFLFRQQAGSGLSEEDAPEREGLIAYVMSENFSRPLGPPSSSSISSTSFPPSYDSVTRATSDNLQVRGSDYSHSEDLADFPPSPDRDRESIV
Method: as §1, §2, §3, §4

SMILES	IC50 [1]	ratio of Nav 1.7 : Nav 1.5 potency (IonWorks) [2]
COc1ccc(CC2(CNCCCCNc3cc(F)c(S(=O)(=O)Nc4nccs4)cc3Cl)CCCN2)cc1 (single isomer, unassigned) [Ex 1-16 Enantiomer A, (S or R)-5-chloro-2-fluoro-4-{[4-({[2-(4-methoxybenzyl)pyrrolidin-2-yl]methyl}amino)butyl]amino}-N-1,3-thiazol-2-ylbenzenesulfonamide]	240 nM	50
COc1ccc(CC2(CNCCCCNc3cc(F)c(S(=O)(=O)Nc4nccs4)cc3Cl)CCCN2)cc1 (single isomer, unassigned) [Ex 1-16 Enantiomer B, (R or S)-5-chloro-2-fluoro-4-{[4-({[2-(4-methoxybenzyl)pyrrolidin-2-yl]methyl}amino)butyl]amino}-N-1,3-thiazol-2-ylbenzenesulfonamide]	130 nM	185
O=S(=O)(Nc1nccs1)c1cc(Cl)c(NCCCCNCC2Cc3ccccc3CN2)cc1F (single isomer, unassigned) [Ex 1-18, (R or S)-5-chloro-2-fluoro-4-({4-[(1,2,3,4-tetrahydroisoquinolin-3-ylmethyl)amino]butyl}amino)-N-1,3-thiazol-2-ylbenzenesulfonamide]	7.9 nM	> 4177
O=S(=O)(Nc1nccs1)c1cc(Cl)c(NCC2CCCC(NCC3CCCN3)C2)cc1F (single isomer, unassigned) [Ex 6-7 Enantiomer B, 5-chloro-2-fluoro-4-((((1S,3R or 1R,3S)-3-(((S)-pyrrolidin-2-ylmethyl)amino)cyclohexyl)methyl)amino)-N-(thiazol-2-yl)benzenesulfonamide]	35 nM	> 940
NCC1CCN1CCCCNc1cc(F)c(S(=O)(=O)Nc2nccs2)cc1Cl (single isomer, unassigned) [Ex 16-53, (S or R)-4-({4-[2-(aminomethyl)-azetidin-1-yl]butyl}amino)-5-chloro-2-fluoro-N-1,3-thiazol-2-ylbenzene-sulfonamide]	42 nM	> 786
O=S(=O)(Nc1nccs1)c1cc(Cl)c(NCCCCNCCNCc2ccccc2)cc1F [Ex 1-3, 4-[(4-{[2-(benzylamino)ethyl]amino}butyl)amino]-5-chloro-2-fluoro-N-1,3-thiazol-2-ylbenzenesulfonamide]	7 nM	> 4700
O=S(=O)(Nc1nccs1)c1cc(Cl)c(NCCCCN2CCC3(CCCN3)CC2)cc1F [Ex 1-14, 5-chloro-4-{[4-(1,8-diazaspiro[4.5]dec-8-yl)butyl]amino}-2-fluoro-N-1,3-thiazol-2-ylbenzenesulfonamide]	38 nM	> 870
O=S(=O)(Nc1nccs1)c1cc(Cl)c(NCCCCN[C@H]2[C@@H]3CC[C@H]2NC3)cc1F [Ex 1-17, 4-({4-[(1R,4R,7S)-2-azabicyclo[2.2.1]hept-7-ylamino]butyl}amino)-5-chloro-2-fluoro-N-1,3-thiazol-2-ylbenzenesulfonamide]	60 nM	> 550
N[C@H]1[C@@H]2CC[C@H]1N(CCCCNc1cc(F)c(S(=O)(=O)Nc3nccs3)cc1Cl)C2 [Ex 1-20, 4-({4-[(1R,4R,7S)-7-amino-2-azabicyclo[2.2.1]hept-2-yl]butyl}amino)-5-chloro-2-fluoro-N-1,3-thiazol-2-ylbenzenesulfonamide]	56 nM	> 590
O=S(=O)(Nc1nccs1)c1cc(Cl)c(NCCCCN2C[C@H]3CNC[C@H]3C2)cc1F [Ex 1-22, 5-chloro-2-fluoro-4-({4-[(3aR,6aS)-hexahydropyrrolo[3,4-c]pyrrol-2(1H)-yl]butyl}amino)-N-1,3-thiazol-2-ylbenzenesulfonamide]	26 nM	> 1270
O=S(=O)(Nc1nccs1)c1cc(Cl)c(NCC(F)(F)CCNC[C@H]2CCCN2)cc1F [Ex 11-12, 5-chloro-4-[(2,2-difluoro-4-{[(2R)-pyrrolidin-2-ylmethyl]amino}butyl)amino]-2-fluoro-N-1,3-thiazol-2-ylbenzenesulfonamide]	49 nM	
NC[C@H]1CCN1CCCCNc1cc(F)c(S(=O)(=O)Nc2ncc(F)s2)cc1Cl [Ex 16-10, 4-({4-[(2R)-2-(aminomethyl)azetidin-1-yl]-butyl}amino)-5-chloro-2-fluoro-N-(5-fluoro-1,3-thiazol-2-yl)-benzene-sulfonamide]	19 nM	
O=S(=O)(Nc1ncns1)c1cc(Cl)c(NCCCCN2C[C@H]3CCCN[C@H]3C2)cc1F [Ex 16-31, 5-chloro-2-fluoro-4-({4-[(4aR,7aR)-octahydro-6H-pyrrolo[3,4-b]pyridin-6-yl]-butyl}amino)-N-1,2,4-thiadiazol-5-ylbenzene-sulfonamide]	12 nM	
NCC1CN(CCCCNc2cc(F)c(S(=O)(=O)Nc3ncns3)cc2Br)C1 [Ex 16-37, 4-((4-(3-(aminomethyl)azetidin-1-yl)butyl)amino)-5-bromo-2-fluoro-N-(1,2,4-thiadiazol-5-yl)benzenesulfonamide]	10 nM	
NC1CN(CCCCNc2cc(F)c(S(=O)(=O)Nc3ncns3)cc2Cl)C1 [Ex 16-38, 4-{[4-(3-aminoazetidin-1-yl)-butyl]amino}-5-chloro-2-fluoro-N-1,2,4-thiadiazol-5-yl-benzenesulfonamide]	30 nM	
N#Cc1cc(S(=O)(=O)Nc2ncc(F)s2)c(F)cc1NCCCCN[C@@H]1CCNC1 [Ex 16-40, 5-cyano-2-fluoro-N-(5-fluoro-1,3-thiazol-2-yl)-4-({4-[(3R)-pyrrolidin-3-yl-amino]butyl}amino)benzene-sulfonamide]	29 nM	
O=S(=O)(Nc1nccs1)c1cc(Cl)c(NCCCCNC2C[C@@H]3CN[C@H]2C3)cc1F (stereo partly drawn) [Ex 16-42, 4-({4-[(1S,4R)-2-azabicyclo[2.2.1]hept-6-yl-amino]butyl}amino)-5-chloro-2-fluoro-N-1,3-thiazol-2-ylbenzene-sulfonamide]	44 nM	
Cc1cc(S(=O)(=O)Nc2ncc(F)s2)c(F)cc1NCCCCN[C@@H]1CCNC1 [Ex 16-43, 2-fluoro-N-(5-fluoro-1,3-thiazol-2-yl)-5-methyl-4-({4-[(3R)-pyrrolidin-3-ylamino]-butyl}amino)benzene-sulfonamide]	11 nM	
O=S(=O)(Nc1ncc(F)s1)c1cc(Br)c(NCCCCN2C[C@H]3CCCN[C@H]3C2)cc1F [Ex 16-44, 5-bromo-2-fluoro-N-(5-fluoro-1,3-thiazol-2-yl)-4-({4-[(4aR,7aR)-octahydro-6H-pyrrolo[3,4-b]pyridin-6-yl]butyl}amino)benzene-sulfonamide]	12 nM	
N#Cc1cc(S(=O)(=O)Nc2ncns2)c(F)cc1NCCCCN[C@@H]1CCNC1 [Ex 16-45, 5-cyano-2-fluoro-4-({4-[(3R)-pyrrolidin-3-yl-amino]butyl}amino)-N-1,2,4-thiadiazol-5-ylbenzene-sulfonamide]	16 nM	
CN[C@@H]1CCN(CCCCNc2cc(F)c(S(=O)(=O)Nc3ncc(F)s3)cc2Cl)C1 [Ex 16-54, 5-chloro-2-fluoro-N-(5-fluoro-1,3-thiazol-2-yl)-4-({4-[(3R)-3-(methylamino)-pyrrolidin-1-yl]butyl}-amino)-benzenesulfonamide]	13 nM	
